Where “and” joins values, the source holds several entries; their conditions need not be identical. Equal entries are not always repeated. Toxic doses and inconclusive results are not listed. How the source made its calls: active means survival T/C of 150% or more; inactive means T/C below 125% in these data.
Tested on: CD2F1 mice, L1210 leukemia ip, survival T/C
Experiment: NCI In Vivo Anticancer Drug Screen. Data for tumor model L1210 Leukemia (intraperitoneal) in CD2F1 (CDF1) mice
Conditions: higher = longer survival
How it was run: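 Each value reflects a quotient of treated over vehicle control outcomes in mice with a transplanted tumor.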

[1] = endpoint: mean survival time, dose: 100.0 mg/kg/injection, schedule: Q01DX009 (ip), vehicle: saline
[2] = endpoint: mean survival time, dose: 200.0 mg/kg/injection, schedule: Q01DX009 (ip), vehicle: saline
[3] = endpoint: mean survival time, dose: 400.0 mg/kg/injection, schedule: Q01DX009 (ip), vehicle: saline
[4] = endpoint: mean survival time, dose: 100.0 mg/kg/injection, schedule: Q01DX001 (ip), vehicle: saline with Tween-80
[5] = endpoint: mean survival time, dose: 400.0 mg/kg/injection, schedule: Q01DX001 (ip), vehicle: saline with Tween-80
[6] = endpoint: mean survival time, dose: 50.0 mg/kg/injection, schedule: Q01DX009 (ip), vehicle: saline
[7] = endpoint: mean survival time, dose: 100.0 mg/kg/injection, schedule: Q04DX003 (ip), vehicle: saline with Tween-80
[8] = endpoint: mean survival time, dose: 200.0 mg/kg/injection, schedule: Q04DX003 (ip), vehicle: saline with Tween-80
[9] = endpoint: mean survival time, dose: 400.0 mg/kg/injection, schedule: Q04DX003 (ip), vehicle: saline with Tween-80
[10] = endpoint: mean survival time, dose: 100.0 mg/kg/injection, schedule: Q04DX003 (ip), vehicle: saline
[11] = endpoint: mean survival time, dose: 200.0 mg/kg/injection, schedule: Q04DX003 (ip), vehicle: saline
[12] = endpoint: mean survival time, dose: 400.0 mg/kg/injection, schedule: Q04DX003 (ip), vehicle: saline
[13] = endpoint: mean survival time, dose: 100.0 mg/kg/injection, schedule: Q01DX001 (ip), vehicle: saline
[14] = endpoint: mean survival time, dose: 200.0 mg/kg/injection, schedule: Q01DX001 (ip), vehicle: saline
[15] = endpoint: mean survival time, dose: 400.0 mg/kg/injection, schedule: Q01DX001 (ip), vehicle: saline

Measured: T/C

COc1ccc(C[As+](c2ccccc2)(c2ccccc2)c2ccccc2)cc1
inactive: endpoint: mean survival time, dose: 5.0 mg/kg/injection, schedule: Q01DX001 (ip), vehicle: saline 102 % of control | endpoint: mean survival time, dose: 10.0 mg/kg/injection, schedule: Q01DX001 (ip), vehicle: saline 95 % of control | endpoint: mean survival time, dose: 20.0 mg/kg/injection, schedule: Q01DX001 (ip), vehicle: saline 98 % of control | endpoint: mean survival time, dose: 40.0 mg/kg/injection, schedule: Q01DX001 (ip), vehicle: saline 100 % of control

CC1=NNC(C)(C)C1
inactive: endpoint: mean survival time, dose: 25.0 mg/kg/injection, schedule: Q01DX009 (ip), vehicle: Klucel (hydroxypropylcellulose) (HPC) 96 % of control | endpoint: mean survival time, dose: 50.0 mg/kg/injection, schedule: Q01DX009 (ip), vehicle: Klucel (hydroxypropylcellulose) (HPC) 97 % of control | endpoint: mean survival time, dose: 100.0 mg/kg/injection, schedule: Q01DX009 (ip), vehicle: Klucel (hydroxypropylcellulose) (HPC) 92 % of control | [1] 102 % of control | endpoint: mean survival time, dose: 200.0 mg/kg/injection, schedule: Q01DX009 (ip), vehicle: Klucel (hydroxypropylcellulose) (HPC) 97 % of control | [2] 105 % of control | endpoint: mean survival time, dose: 400.0 mg/kg/injection, schedule: Q01DX009 (ip), vehicle: Klucel (hydroxypropylcellulose) (HPC) 97 % of control | [3] 103 % of control

COc1cc(NC(=O)O/N=C/c2ccccn2)cc(OC)c1OC
inactive: [4] 95 % of control | [5] 92 % of control

Clc1ccc2scc3c4ccccc4nc-3c2c1
inactive: endpoint: mean survival time, dose: 25.0 mg/kg/injection, schedule: Q01DX009 (ip), vehicle: saline 104 % of control | [6] 101 % of control

Cc1c(C)c(Cl)c(C)c(C)c1Cl
inactive: endpoint: mean survival time, dose: 5.0 mg/kg/injection, schedule: Q01DX009 (ip), vehicle: saline with Tween-80 98 % of control | endpoint: mean survival time, dose: 5.0 mg/kg/injection, schedule: Q04DX003 (ip), vehicle: saline with Tween-80 100 % of control | endpoint: mean survival time, dose: 10.0 mg/kg/injection, schedule: Q01DX009 (ip), vehicle: saline with Tween-80 104 % of control | endpoint: mean survival time, dose: 10.0 mg/kg/injection, schedule: Q04DX003 (ip), vehicle: saline with Tween-80 100 % of control | endpoint: mean survival time, dose: 20.0 mg/kg/injection, schedule: Q01DX009 (ip), vehicle: saline with Tween-80 98 % of control | endpoint: mean survival time, dose: 20.0 mg/kg/injection, schedule: Q04DX003 (ip), vehicle: saline with Tween-80 105 % of control

CC1(C)SSC(C)(C)SS1
inactive: [7] 106 % of control | [8] 97 % of control | [9] 103 % of control

O=C(/C=C\c1ccnc2ccccc12)c1ccc([N+](=O)[O-])cc1
inactive: endpoint: mean survival time, dose: 12.5 mg/kg/injection, schedule: Q01DX009 (ip), vehicle: other 94 % of control | endpoint: mean survival time, dose: 25.0 mg/kg/injection, schedule: Q01DX009 (ip), vehicle: other 89 % of control | endpoint: mean survival time, dose: 50.0 mg/kg/injection, schedule: Q01DX009 (ip), vehicle: other 89 % of control | endpoint: mean survival time, dose: 100.0 mg/kg/injection, schedule: Q01DX009 (ip), vehicle: other 92 % of control | [7] 97 % of control | endpoint: mean survival time, dose: 200.0 mg/kg/injection, schedule: Q01DX009 (ip), vehicle: other 97 % of control | [8] 94 % of control | [9] 91 % of control

CCCCC(CC)CNC1=C(Cl)C(=O)c2ccccc2C1=O (configuration not stated)
inactive: endpoint: mean survival time, dose: 25.0 mg/kg/injection, schedule: Q04DX003 (ip), vehicle: saline with Tween-80 98 % of control | endpoint: mean survival time, dose: 50.0 mg/kg/injection, schedule: Q04DX003 (ip), vehicle: saline with Tween-80 106 % of control | [7] 95 % of control

COC(=O)C12CCC1(Cl)CC2 (configuration not stated)
inactive: [10] 98 % of control | [11] 93 % of control | [12] 96 % of control

COc1ccc2c(c1)CCC1C2CCC2(C)C(=O)NC(=O)N12 (configuration not stated)
inactive: endpoint: mean survival time, dose: 25.0 mg/kg/injection, schedule: Q04DX002 (ip), vehicle: saline with Tween-80 93 % of control | endpoint: mean survival time, dose: 50.0 mg/kg/injection, schedule: Q04DX002 (ip), vehicle: saline with Tween-80 86 % of control | [4] 86 % of control | endpoint: mean survival time, dose: 100.0 mg/kg/injection, schedule: Q04DX002 (ip), vehicle: saline with Tween-80 86 % of control and 90 % of control | [5] 93 % of control | endpoint: mean survival time, dose: 400.0 mg/kg/injection, schedule: Q04DX002 (ip), vehicle: saline with Tween-80 86 % of control

COC1C(O)CC(=O)OC(C)C/C=C/C=C/C(OC2CCC(N(C)C)C(C)O2)C(C)CC(CC=O)C1OC1OC(C)C(OC2CC(C)(O)C(O)C(C)O2)C(N(C)C)C1O (configuration not stated)
inactive: endpoint: mean survival time, dose: 6.3 mg/kg/injection, schedule: Q03HX024 (ip), vehicle: saline 100 % of control | endpoint: mean survival time, dose: 12.5 mg/kg/injection, schedule: Q03HX008 (ip), vehicle: saline 100 % of control | endpoint: mean survival time, dose: 12.5 mg/kg/injection, schedule: Q03HX024 (ip), vehicle: saline 100 % of control | endpoint: mean survival time, dose: 25.0 mg/kg/injection, schedule: Q03HX008 (ip), vehicle: saline 97 % of control | endpoint: mean survival time, dose: 25.0 mg/kg/injection, schedule: Q03HX024 (ip), vehicle: saline 101 % of control | [6] 98 % of control | endpoint: mean survival time, dose: 50.0 mg/kg/injection, schedule: Q03HX008 (ip), vehicle: saline 100 % of control | endpoint: mean survival time, dose: 50.0 mg/kg/injection, schedule: Q03HX024 (ip), vehicle: saline 103 % of control | [13] 102 % of control | [1] 96 % of control | endpoint: mean survival time, dose: 100.0 mg/kg/injection, schedule: Q03HX008 (ip), vehicle: saline 97 % of control | [10] 98 % of control | [14] 98 % of control | [2] 102 % of control | [11] 100 % of control | [15] 106 % of control | [3] 98 % of control | [12] 100 % of control

COc1ccc2c(c1)CNC1c3cc(OC)c(O)cc3CC21 (configuration not stated)
inactive: endpoint: mean survival time, dose: 66.0 mg/kg/injection, schedule: Q04DX003 (ip), vehicle: saline with Tween-80 107 % of control

CN(C)c1ccc(/C=N/NC(=O)CC2CCCCC2)cc1
inactive: endpoint: mean survival time, dose: 100.0 mg/kg/injection, schedule: Q01DX009 (ip), vehicle: saline with Tween-80 90 % of control | endpoint: mean survival time, dose: 200.0 mg/kg/injection, schedule: Q01DX009 (ip), vehicle: saline with Tween-80 93 % of control | endpoint: mean survival time, dose: 400.0 mg/kg/injection, schedule: Q01DX009 (ip), vehicle: saline with Tween-80 93 % of control

O=NC1CCCCC1Cl (configuration not stated)
inactive: [13] 96 % of control and 98 % of control and 93 % of control | [14] 95 % of control and 102 % of control and 100 % of control | [15] 101 % of control and 105 % of control

COc1ccn(C2OC(=O)C(C)(C)C2=O)c(=O)n1 (configuration not stated)
inactive: endpoint: median survival time, dose: 12.5 mg/kg/injection, schedule: Q01DX005 (ip), vehicle: saline 101 % of control | endpoint: median survival time, dose: 25.0 mg/kg/injection, schedule: Q01DX005 (ip), vehicle: saline 100 % of control | endpoint: median survival time, dose: 50.0 mg/kg/injection, schedule: Q01DX005 (ip), vehicle: saline 101 % of control | endpoint: median survival time, dose: 100.0 mg/kg/injection, schedule: Q01DX005 (ip), vehicle: saline 101 % of control | endpoint: median survival time, dose: 200.0 mg/kg/injection, schedule: Q01DX005 (ip), vehicle: saline 100 % of control

COc1ccc(Cl)c2c1C(=O)C(=O)N2
inactive: [7] 91 % of control | [8] 98 % of control | [9] 98 % of control

COC(CN(C)Cc1c[nH]c2ccccc12)OC
inactive: endpoint: mean survival time, dose: 75.0 mg/kg/injection, schedule: Q01DX001 (ip), vehicle: saline 107 % of control

CCCCN(CCCC)CC(O)c1cc(-c2c(Cl)cccc2Cl)nc2c(Cl)cc(Cl)cc12 (configuration not stated)
inactive: [7] 86 % of control | [8] 93 % of control | [9] 96 % of control
